Data taken from patent US10526320B2, “Pyrrolidine derivatives as PPAR agonists” (GUANGDONG RAYNOVENT BIOTECH CO., LTD., priority 2016, dated 2020).

What follows are compounds tested against T1, PPAR Delta (Homo sapiens, UniProt Q03181) (assay: PathHunter NHR protein interaction / nuclear translocation agonist test, PPAR Delta). Conditions: not given.
T1 sequence (Q03181 1-441): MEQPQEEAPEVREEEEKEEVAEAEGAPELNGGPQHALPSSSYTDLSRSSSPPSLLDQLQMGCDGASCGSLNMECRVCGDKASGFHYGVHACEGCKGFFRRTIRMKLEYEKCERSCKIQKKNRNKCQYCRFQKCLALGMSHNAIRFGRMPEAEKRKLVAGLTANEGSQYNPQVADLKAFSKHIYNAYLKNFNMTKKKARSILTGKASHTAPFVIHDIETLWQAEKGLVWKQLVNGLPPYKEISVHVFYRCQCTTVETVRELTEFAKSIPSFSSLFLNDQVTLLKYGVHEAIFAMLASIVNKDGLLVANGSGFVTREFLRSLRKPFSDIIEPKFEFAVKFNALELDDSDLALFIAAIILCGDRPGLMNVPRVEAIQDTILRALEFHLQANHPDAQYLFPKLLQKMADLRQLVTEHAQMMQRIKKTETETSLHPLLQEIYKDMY
Type: cell-based

Compound | PPAR Delta Maximum Activation Response %
CSc1ccc(C(=O)C2CN(C(=O)Oc3ccccc3)CC2Cc2cccc(OC(C)(C)C(=O)O)c2)cc1 (single isomer, unassigned) [Compound 50] | II (key: 100% ≥ I ≥ 80%; 80% ≥ II ≥ 50%; III < 50%)

Same assay, conditions: PPAR Delta EC50 nM

Compound | EC50 [nM]
CSc1ccc(C(=O)[C@H]2CN(C(=O)Oc3ccccc3)C[C@@H]2CCc2cc(C)c(OC(C)(C)C(=O)OC(C)C)c(C)c2)cc1 (single isomer, unassigned) [Compound 61] | > 250

Same assay, conditions: agonist mode; read-out: PPAR Delta EC50

Compound | EC50 [nM]
CSc1ccc(C(=O)C2CN(C(=O)Oc3ccc(C)cc3)CC2c2cc(C)c(OC(C)(C)C(=O)O)c(C)c2)cc1 (single isomer, unassigned) [Compound 39] | 100 to 150
CSc1ccc(C(=O)C2CN(C(=O)Oc3ccccc3)CC2c2cccc(OC(C)(C)C(=O)O)c2)cc1 (stereo not drawn) [Compound 24] | > 250
CSc1ccc(C(=O)[C@@H]2CN(C(=O)Oc3ccccc3)C[C@H]2CCc2cc(C)c(OC(C)(C)C(=O)O)c(C)c2)cc1 (single isomer, unassigned) [Compound 52] | < 100
CSc1ccc(C(=O)C2CN(C(=O)Oc3ccccc3)CC2Cc2cccc(OC(C)(C)C(=O)O)c2)cc1 (single isomer, unassigned) [Compound 50] | 150 to 200
CSc1ccc(C(=O)C2CN(C(=O)Oc3ccccc3)CC2Cc2cccc(OC(C)(C)C(=O)O)c2)cc1 (single isomer, unassigned) [Compound 49] | 100 to 150
CSc1ccc(C(=O)[C@@H]2CN(C(=O)Oc3ccc(Cl)c(Cl)c3)C[C@H]2c2cc(C)c(OC(C)(C)C(=O)O)c(C)c2)cc1 (single isomer, unassigned) [Compound 43] | < 100
COCCN1CC(CCc2cc(C)c(OC(C)(C)C(=O)O)c(C)c2)C(C(=O)c2ccc(SC)cc2)C1 (stereo not drawn) [Compound 59] | 200 to 250
CSc1ccc(C(=O)[C@@H]2CN(C(=O)Oc3ccc(C(C)C)cc3)C[C@H]2c2cc(C)c(OC(C)(C)C(=O)O)c(C)c2)cc1 (single isomer, unassigned) [Compound 40] | 100 to 150
CSc1ccc(C(=O)C2CN(C(=O)Oc3ccc(Cl)cc3)CC2c2cccc(OC(C)(C)C(=O)O)c2)cc1 (single isomer, unassigned) [Compound 33] | > 250
CSc1ccc(C(=O)C2CN(C(=O)Oc3ccc(Cl)cc3)CC2Cc2cc(C)c(OC(C)(C)C(=O)O)c(C)c2)cc1 (single isomer, unassigned) [Compound 27] | < 100
CSc1ccc(C(=O)[C@H]2CN(C(=O)Oc3cnn(C)c3)C[C@@H]2Cc2cc(C)c(OC(C)(C)C(=O)O)c(C)c2)cc1 (racemic) [Compound 48] | 100 to 150
CSc1ccc(C(=O)C2CN(C3COC3)C[C@@H]2CCc2cc(C)c(OC(C)(C)C(=O)O)c(C)c2)cc1 (mixture of isomers) [Compound 73] | > 250
COc1ccc(OC(=O)N2CC(C(=O)c3ccc(SC)cc3)[C@@H](c3cc(C)c(OC(C)(C)C(=O)O)c(C)c3)C2)cc1 (mixture of isomers) [Compound 15] | 200 to 250
Cc1cc(CCC2CN(C(=O)Oc3ccccc3)CC2C(=O)c2ccccc2)cc(C)c1OC(C)(C)C(=O)O (single isomer, unassigned) [Compound 62] | 100 to 150
CSc1ccc(C(=O)C2CN(C(=O)Oc3ccccc3Cl)C[C@@H]2c2cc(C)c(OC(C)(C)C(=O)O)c(C)c2)cc1 (mixture of isomers) [Compound 12] | > 250
CSc1ccc(C(=O)C2CN(C(C)=O)CC2c2cc(C)c(OC(C)(C)C(=O)O)c(C)c2)cc1 (single isomer, unassigned) [Compound 21] | > 250

Same assay, conditions: read-out: PPAR Delta Maximum Activation Response %

Compound | Emax [%]
CSc1ccc(C(=O)C2CN(C(=O)Oc3ccc(C)cc3)CC2c2cc(C)c(OC(C)(C)C(=O)O)c(C)c2)cc1 (single isomer, unassigned) [Compound 39] | 80 to 100
CSc1ccc(C(=O)C2CN(C(=O)Oc3ccccc3)CC2c2cccc(OC(C)(C)C(=O)O)c2)cc1 (stereo not drawn) [Compound 24] | 80 to 100
CSc1ccc(C(=O)C2CN(C(=O)Oc3ccccc3)CC2Cc2cccc(OC(C)(C)C(=O)O)c2)cc1 (single isomer, unassigned) [Compound 49] | 50 to 80
CSc1ccc(C(=O)C2CN(C(=O)Oc3ccc(Cl)cc3)CC2c2cccc(OC(C)(C)C(=O)O)c2)cc1 (single isomer, unassigned) [Compound 33] | 50 to 80
CSc1ccc(C(=O)C2CN(C(=O)Oc3ccc(Cl)cc3)CC2Cc2cc(C)c(OC(C)(C)C(=O)O)c(C)c2)cc1 (single isomer, unassigned) [Compound 27] | 50 to 80
CSc1ccc(C(=O)[C@H]2CN(C(=O)Oc3cnn(C)c3)C[C@@H]2Cc2cc(C)c(OC(C)(C)C(=O)O)c(C)c2)cc1 (racemic) [Compound 48] | 50 to 80
COc1ccc(OC(=O)N2CC(C(=O)c3ccc(SC)cc3)[C@@H](c3cc(C)c(OC(C)(C)C(=O)O)c(C)c3)C2)cc1 (mixture of isomers) [Compound 15] | 50 to 80
CSc1ccc(C(=O)C2CN(C(=O)Oc3ccccc3Cl)C[C@@H]2c2cc(C)c(OC(C)(C)C(=O)O)c(C)c2)cc1 (mixture of isomers) [Compound 12] | 50 to 80
CSc1ccc(C(=O)C2CN(C(C)=O)CC2c2cc(C)c(OC(C)(C)C(=O)O)c(C)c2)cc1 (single isomer, unassigned) [Compound 21] | 50 to 80
CSc1ccc(C(=O)[C@H]2CN(C(=O)Oc3ccccc3)C[C@@H]2CCc2cc(C)c(OC(C)(C)C(=O)OC(C)C)c(C)c2)cc1 (single isomer, unassigned) [Compound 61] | < 50

Same assay, conditions: relative to known PPARδ agonist L-165,041 = 100%; read-out: PPAR Delta Maximum Activation Response %

Compound | Emax [%]
CSc1ccc(C(=O)[C@@H]2CN(C(=O)Oc3ccc(Cl)c(Cl)c3)C[C@H]2c2cc(C)c(OC(C)(C)C(=O)O)c(C)c2)cc1 (single isomer, unassigned) [Compound 43] | 80 to 100
COCCN1CC(CCc2cc(C)c(OC(C)(C)C(=O)O)c(C)c2)C(C(=O)c2ccc(SC)cc2)C1 (stereo not drawn) [Compound 59] | 50 to 80
CSc1ccc(C(=O)[C@@H]2CN(C(=O)Oc3ccc(C(C)C)cc3)C[C@H]2c2cc(C)c(OC(C)(C)C(=O)O)c(C)c2)cc1 (single isomer, unassigned) [Compound 40] | 80 to 100
CSc1ccc(C(=O)C2CN(C3COC3)C[C@@H]2CCc2cc(C)c(OC(C)(C)C(=O)O)c(C)c2)cc1 (mixture of isomers) [Compound 73] | 80 to 100
Cc1cc(CCC2CN(C(=O)Oc3ccccc3)CC2C(=O)c2ccccc2)cc(C)c1OC(C)(C)C(=O)O (single isomer, unassigned) [Compound 62] | 80 to 100

The compounds below were run against T2, PPAR Alpha (Homo sapiens, UniProt Q07869) (assay: PathHunter NHR protein interaction / nuclear translocation agonist test, PPAR Alpha). Conditions: PPAR Alpha EC50 nM.
T2 sequence (Q07869 1-468): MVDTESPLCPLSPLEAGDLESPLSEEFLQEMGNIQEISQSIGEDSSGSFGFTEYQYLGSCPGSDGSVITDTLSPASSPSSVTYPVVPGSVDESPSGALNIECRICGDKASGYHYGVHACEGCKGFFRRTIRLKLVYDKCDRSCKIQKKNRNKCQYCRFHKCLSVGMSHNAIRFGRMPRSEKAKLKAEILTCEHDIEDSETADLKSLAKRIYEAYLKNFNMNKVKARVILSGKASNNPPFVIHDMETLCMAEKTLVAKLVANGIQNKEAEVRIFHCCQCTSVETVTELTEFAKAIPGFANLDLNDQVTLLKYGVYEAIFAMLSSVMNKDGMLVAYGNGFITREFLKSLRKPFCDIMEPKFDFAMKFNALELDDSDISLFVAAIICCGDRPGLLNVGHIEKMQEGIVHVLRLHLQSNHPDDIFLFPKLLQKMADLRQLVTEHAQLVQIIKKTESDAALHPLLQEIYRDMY
Type: cell-based

Compound | EC50 [nM]
CSc1ccc(C(=O)[C@H]2CN(C(=O)Oc3ccccc3)C[C@@H]2CCc2cc(C)c(OC(C)(C)C(=O)OC(C)C)c(C)c2)cc1 (single isomer, unassigned) [Compound 61] | > 250

Same assay, conditions: agonist mode; read-out: PPAR Alpha EC50

Compound | EC50 [nM]
CSc1ccc(C(=O)C2CN(C(=O)Oc3ccc(C)cc3)CC2c2cc(C)c(OC(C)(C)C(=O)O)c(C)c2)cc1 (single isomer, unassigned) [Compound 39] | < 100
CSc1ccc(C(=O)[C@@H]2CN(C(=O)Oc3ccccc3)C[C@H]2CCc2cc(C)c(OC(C)(C)C(=O)O)c(C)c2)cc1 (single isomer, unassigned) [Compound 52] | < 100
CSc1ccc(C(=O)[C@@H]2CN(C(=O)Oc3ccc(Cl)c(Cl)c3)C[C@H]2c2cc(C)c(OC(C)(C)C(=O)O)c(C)c2)cc1 (single isomer, unassigned) [Compound 43] | < 100
COCCN1CC(CCc2cc(C)c(OC(C)(C)C(=O)O)c(C)c2)C(C(=O)c2ccc(SC)cc2)C1 (stereo not drawn) [Compound 59] | 200 to 250
CSc1ccc(C(=O)[C@@H]2CN(C(=O)Oc3ccc(C(C)C)cc3)C[C@H]2c2cc(C)c(OC(C)(C)C(=O)O)c(C)c2)cc1 (single isomer, unassigned) [Compound 40] | < 100
CSc1ccc(C(=O)C2CN(C(=O)Oc3ccc(Cl)cc3)CC2c2cccc(OC(C)(C)C(=O)O)c2)cc1 (single isomer, unassigned) [Compound 33] | 200 to 250
CSc1ccc(C(=O)C2CN(C(=O)Oc3ccc(Cl)cc3)CC2Cc2cc(C)c(OC(C)(C)C(=O)O)c(C)c2)cc1 (single isomer, unassigned) [Compound 27] | < 100
CSc1ccc(C(=O)[C@H]2CN(C(=O)Oc3cnn(C)c3)C[C@@H]2Cc2cc(C)c(OC(C)(C)C(=O)O)c(C)c2)cc1 (racemic) [Compound 48] | < 100
CSc1ccc(C(=O)C2CN(C3COC3)C[C@@H]2CCc2cc(C)c(OC(C)(C)C(=O)O)c(C)c2)cc1 (mixture of isomers) [Compound 73] | 200 to 250
COc1ccc(OC(=O)N2CC(C(=O)c3ccc(SC)cc3)[C@@H](c3cc(C)c(OC(C)(C)C(=O)O)c(C)c3)C2)cc1 (mixture of isomers) [Compound 15] | 150 to 200
Cc1cc(CCC2CN(C(=O)Oc3ccccc3)CC2C(=O)c2ccccc2)cc(C)c1OC(C)(C)C(=O)O (single isomer, unassigned) [Compound 62] | 100 to 150
CSc1ccc(C(=O)C2CN(C(=O)Oc3ccccc3Cl)C[C@@H]2c2cc(C)c(OC(C)(C)C(=O)O)c(C)c2)cc1 (mixture of isomers) [Compound 12] | 150 to 200
CSc1ccc(C(=O)C2CN(C(C)=O)CC2c2cc(C)c(OC(C)(C)C(=O)O)c(C)c2)cc1 (single isomer, unassigned) [Compound 21] | > 250

Same assay, conditions: read-out: PPAR Alpha Maximum Activation Response %

Compound | Emax [%]
CSc1ccc(C(=O)C2CN(C(=O)Oc3ccc(C)cc3)CC2c2cc(C)c(OC(C)(C)C(=O)O)c(C)c2)cc1 (single isomer, unassigned) [Compound 39] | 80 to 100
CSc1ccc(C(=O)[C@@H]2CN(C(=O)Oc3ccc(Cl)c(Cl)c3)C[C@H]2c2cc(C)c(OC(C)(C)C(=O)O)c(C)c2)cc1 (single isomer, unassigned) [Compound 43] | 80 to 100
COCCN1CC(CCc2cc(C)c(OC(C)(C)C(=O)O)c(C)c2)C(C(=O)c2ccc(SC)cc2)C1 (stereo not drawn) [Compound 59] | 50 to 80
CSc1ccc(C(=O)[C@@H]2CN(C(=O)Oc3ccc(C(C)C)cc3)C[C@H]2c2cc(C)c(OC(C)(C)C(=O)O)c(C)c2)cc1 (single isomer, unassigned) [Compound 40] | 80 to 100
CSc1ccc(C(=O)C2CN(C(=O)Oc3ccc(Cl)cc3)CC2c2cccc(OC(C)(C)C(=O)O)c2)cc1 (single isomer, unassigned) [Compound 33] | 80 to 100
CSc1ccc(C(=O)C2CN(C(=O)Oc3ccc(Cl)cc3)CC2Cc2cc(C)c(OC(C)(C)C(=O)O)c(C)c2)cc1 (single isomer, unassigned) [Compound 27] | 80 to 100
CSc1ccc(C(=O)[C@H]2CN(C(=O)Oc3cnn(C)c3)C[C@@H]2Cc2cc(C)c(OC(C)(C)C(=O)O)c(C)c2)cc1 (racemic) [Compound 48] | 50 to 80
CSc1ccc(C(=O)C2CN(C3COC3)C[C@@H]2CCc2cc(C)c(OC(C)(C)C(=O)O)c(C)c2)cc1 (mixture of isomers) [Compound 73] | 80 to 100
COc1ccc(OC(=O)N2CC(C(=O)c3ccc(SC)cc3)[C@@H](c3cc(C)c(OC(C)(C)C(=O)O)c(C)c3)C2)cc1 (mixture of isomers) [Compound 15] | 80 to 100
Cc1cc(CCC2CN(C(=O)Oc3ccccc3)CC2C(=O)c2ccccc2)cc(C)c1OC(C)(C)C(=O)O (single isomer, unassigned) [Compound 62] | 80 to 100
CSc1ccc(C(=O)C2CN(C(=O)Oc3ccccc3Cl)C[C@@H]2c2cc(C)c(OC(C)(C)C(=O)O)c(C)c2)cc1 (mixture of isomers) [Compound 12] | 80 to 100
CSc1ccc(C(=O)C2CN(C(C)=O)CC2c2cc(C)c(OC(C)(C)C(=O)O)c(C)c2)cc1 (single isomer, unassigned) [Compound 21] | 80 to 100
CSc1ccc(C(=O)[C@H]2CN(C(=O)Oc3ccccc3)C[C@@H]2CCc2cc(C)c(OC(C)(C)C(=O)OC(C)C)c(C)c2)cc1 (single isomer, unassigned) [Compound 61] | < 50
